Laboratory results taken from patent US8557783B2, “Phosphotetrahydropyran compounds for the treatment of wounds and fibrotic disorders” (Pharmaxis Pty Limited, priority 2009, dated 2013).

What was measured:
[1] = test system: New Zealand White rabbits, filtering bleb; assay: Rabbit model of experimental glaucoma filtering surgery; type: in vivo; settings: intraoperative sponge 3 minutes; PXS-25 40 mg/mL, MMC 0.4 mg/mL
Protocol: New Zealand White rabbits (18) were subjected to a modified glaucoma filtering surgery in the left eye. The animals received either intraoperative PXS-25 at a concentration of 40 mg/mL (Group 1), intraoperative Mitomycin C (MMC) at a concentration of 0.4 mg/mL (Group 2), or intraoperative test compound and Mitomycin C (MMC) (Group 3).
Filtration surgery was performed on the left eye only. MMC, test compound (Formula 1) or the combination were delivered with a large sponge measuring 8×10 mm (dry size) cut from a Weck-Cel prior to cutting the flap and sclerostomy. The sponge pieces were placed between the conjunctiva and sclera over the determined filtration site for 3 minutes. The area was then thoroughly irrigated with 30 mL of physiologic saline. The animals were reviewed on the first day after surgery, and then weekly until bleb failure. The study was terminated after the 8 week. Fluorescein tracer studies was performed as follows. Sodium fluorescein was injected into the anterior chamber and the drainage pathway using a slit lamp based digital video camera system was recorded. The animals were sacrificed and tissue sections were prepared for immunohistochemically staining for signs of scarring and inflammation.

[2] = test system: LPS-induced lung inflammation, C57BI/6 mice; assay: Acute LPS-induced lung inflammation in the mouse; type: in vivo; settings: for total number of inflammatory cells in BAL fluid versus LPS control group: 15 min prior to LPS, 3 hours after LPS
Protocol: Age-matched germ-free male C57BI/6 mice (25.30±0.39 g; 6-7 week-old) were transiently anaesthetized with a mixture of isoflurane and oxygen. The vehicle-treated group received intravenous injection (iv) of saline 15 min prior to intra-tracheal instillation (i.t.) of lipopolysaccharide (LPS, 3 mg/kg). Another set of animals received i.v. injection of dexamethasone at 1 mg/kg or 2.5 mg/kg 1 hour prior to LPS. The phosphotetrahydropyran test compound was administered to the animals at 5, 15 and 30 mg/kg (iv) 15 min prior to LPS instillation. A separate group of mice was used as sham (saline/PBS) and was treated with i.v. injection of saline and i.t. injection of PBS (phosphate buffered saline).
Three hours after the LPS administration, animals were anaesthetized with urethane (25%, […] body weight). A blood sample was collected by cardiac puncture (≅1 mL) and the animals were sacrificed by cervical dislocation. The trachea was cannulated and the lungs were lavaged with 2 mL of PBS containing EDTA (1 mM). The lavaged fluid was harvested by gentle injections and aspirations four times with 0.5 mL each, and centrifuged. The total cell count was determined on a fresh fluid specimen with Turk solution using a Neubauer chamber. Differential cell counts were determined using Cytospin technique. Aliquots of the bronchoalveolar lavage (BAL) supernatants were stored without further treatment at −80° C.
Slices of each pulmonary lobe were immediately removed from the animal, weighed and either frozen in liquid nitrogen for myeloperoxidase (MPO) assay or placed in the oven for lung oedema evaluation. Determination of MPO activity was used as an index of leukocyte accumulation, where one unit of MPO activity was defined as that degrading 1 μmol hydrogen peroxide/min at 25° C. by the formula MPO (U/g)=Vmax/s×60/0.0113/0.5. Data were presented as MPO activity expressed as U/g wet tissue. To determine pulmonary oedema, the left pulmonary lobes were removed, weighed and dried at 60° C. for 48 h for wet to dry weight ratio measurements.

[3] = Determination of bioavailability in the rat; type: in vivo; settings: oral, rats, gavage 10 mg/kg versus intravenously 1 mg/kg, plasma LC-MS
Protocol: The phosphotetrahydropyran test compound (Formula 1; n=1 and R=2,4-dimethylphenyl) was administered to rats by gavage at 10 mg/kg or intravenously at 1 mg/kg). Blood samples were taken at 15 and 30 min and at 1, 2, 3, 4, 8, 12 and 24 hours. Plasma samples were prepared by the addition of 50% acetonitrile/water (20 μL). Protein precipitation was carried out by the addition of trichloroacetic acid (20% in water, 40 μL), vortexing (20 s) and after storing at 4° C. for 60 minutes, centrifugation (10,000 rpm) in a microcentrifuge for 5 min. The supernatant was subsequently separated and 25 μL injected directly onto the column for LC-MS analysis.

[4] = molecular target: T1, Cation-Independent Mannose 6-Phosphate Receptor (sCI-MPR) (Bos taurus, UniProt P08169); assay: Antagonism of mannose 6-phosphate binding to the CI-M6P receptor (SPR, Biacore); parameters: species or system fetal calf; settings: mean; SPR at 25° C., sCI-MPR binding to immobilized human β-glucuronidase
T1 construct: Samples of purified sCI-MPR purified from fetal calf serum; from tissue; host or cells: fetal calf serum
Protocol: All surface plasmon resonance (SPR) measurements were performed at 25° C. using a Biacore 3000 instrument (BIAcore, Piscataway, N.J.). CM5 research grade sensor chips, surfactant P20 and amine coupling kits were also obtained from BIAcore. Purified human β-glucuronidase was immobilized on CM5 sensor chips following activation of the surface using 1-ethyl-3-(3-dimethylaminopropyl)carbodiimide and N-hydroxysuccinimide as recommended by the manufacturer. Briefly, the proteins were injected onto the activated dextran surface at a concentration of 10-20 μg/mL in 10 mM sodium acetate buffer, pH 4.5 using 10 mM HEPES pH 7.5, 150 mM NaCl and 0.005% (v/v) P20 as the running buffer. After coupling, unreacted N-hydroxysuccinimide ester groups were blocked with ethanolamine. The reference surface was treated in the same way except that protein was omitted. […] The response at equilibrium for each concentration of protein was determined by averaging the response over a 10 sec period within the steady state region of the sensorgram using the BIAevaluation software package (version 4.0.1). […]

[5] = test system: thioglycolate-induced leukocyte migration in the peritoneal cavity, C57BI/6 mice; assay: Thioglycolate-induced peritonitis in the mouse; type: in vivo; settings: for peritoneal total cell number in untreated mice compared with treated mice: −15 min, 3 h
Protocol: Germ-free male C57BI/6 mice, weighing in the target range of 21.30±0.39 g (6-7 week-old) were anaesthetised with halothane and then received by intravenous route (iv) increasing doses of the phosphotetrahydropyran test compound (5 or 15 mg/kg, −15 min), dexamethasone (1 mg/kg, −60 min) or the respective vehicle (saline 0.9%, pH 7.4). Peritoneal inflammation was induced by i.p. injection of Brewer's thioglycolate. Thioglycolate was prepared freshly (3%, w/v) in sterile saline, and 1.5 mL was injected into the intraperitoneum cavity (ip). Following 3 h treatment, animals were killed (under anesthesia) by cervical dislocation, and cells were recovered by peritoneal lavage using 5 mL of ice-cold PBS. The lavage contents were immediately stored on ice. Peritoneal exudate cells (PEC) were further diluted in 5 mL of ice-cold PBS. The total cell count was determined on a Neubauer chamber with Turk solution, whereas the differential cell counts were conducted on cytospin preparations. Peritoneal lavage was carefully confirmed to be negative for erythrocytes by microscopy to exclude the possibility that leukocyte accumulation in the peritoneal cavity was due to microbleeding, which may occur during animal preparation.
Data are expressed as Mean (±SEM) from n individual animals. Statistical analysis of data was carried out using Software Graphpad prism v4. Comparative data were analysed using ANOVA followed by Dunnett's post test and ANOVA (unpaired Student's T tests). Statistical P values less than 0.05 were taken as significant.
The results of polymorphonuclear (PMN) (A), mononuclear (MN) recruitment (B) and total cells (C) are shown as number of cells per cavity. The results are from a representative experiment with 11 mice. Significant p values for each time point are shown (Dunnett's post test and unpaired T-test).

T1 sequence (P08169 45-2313 limits assumed): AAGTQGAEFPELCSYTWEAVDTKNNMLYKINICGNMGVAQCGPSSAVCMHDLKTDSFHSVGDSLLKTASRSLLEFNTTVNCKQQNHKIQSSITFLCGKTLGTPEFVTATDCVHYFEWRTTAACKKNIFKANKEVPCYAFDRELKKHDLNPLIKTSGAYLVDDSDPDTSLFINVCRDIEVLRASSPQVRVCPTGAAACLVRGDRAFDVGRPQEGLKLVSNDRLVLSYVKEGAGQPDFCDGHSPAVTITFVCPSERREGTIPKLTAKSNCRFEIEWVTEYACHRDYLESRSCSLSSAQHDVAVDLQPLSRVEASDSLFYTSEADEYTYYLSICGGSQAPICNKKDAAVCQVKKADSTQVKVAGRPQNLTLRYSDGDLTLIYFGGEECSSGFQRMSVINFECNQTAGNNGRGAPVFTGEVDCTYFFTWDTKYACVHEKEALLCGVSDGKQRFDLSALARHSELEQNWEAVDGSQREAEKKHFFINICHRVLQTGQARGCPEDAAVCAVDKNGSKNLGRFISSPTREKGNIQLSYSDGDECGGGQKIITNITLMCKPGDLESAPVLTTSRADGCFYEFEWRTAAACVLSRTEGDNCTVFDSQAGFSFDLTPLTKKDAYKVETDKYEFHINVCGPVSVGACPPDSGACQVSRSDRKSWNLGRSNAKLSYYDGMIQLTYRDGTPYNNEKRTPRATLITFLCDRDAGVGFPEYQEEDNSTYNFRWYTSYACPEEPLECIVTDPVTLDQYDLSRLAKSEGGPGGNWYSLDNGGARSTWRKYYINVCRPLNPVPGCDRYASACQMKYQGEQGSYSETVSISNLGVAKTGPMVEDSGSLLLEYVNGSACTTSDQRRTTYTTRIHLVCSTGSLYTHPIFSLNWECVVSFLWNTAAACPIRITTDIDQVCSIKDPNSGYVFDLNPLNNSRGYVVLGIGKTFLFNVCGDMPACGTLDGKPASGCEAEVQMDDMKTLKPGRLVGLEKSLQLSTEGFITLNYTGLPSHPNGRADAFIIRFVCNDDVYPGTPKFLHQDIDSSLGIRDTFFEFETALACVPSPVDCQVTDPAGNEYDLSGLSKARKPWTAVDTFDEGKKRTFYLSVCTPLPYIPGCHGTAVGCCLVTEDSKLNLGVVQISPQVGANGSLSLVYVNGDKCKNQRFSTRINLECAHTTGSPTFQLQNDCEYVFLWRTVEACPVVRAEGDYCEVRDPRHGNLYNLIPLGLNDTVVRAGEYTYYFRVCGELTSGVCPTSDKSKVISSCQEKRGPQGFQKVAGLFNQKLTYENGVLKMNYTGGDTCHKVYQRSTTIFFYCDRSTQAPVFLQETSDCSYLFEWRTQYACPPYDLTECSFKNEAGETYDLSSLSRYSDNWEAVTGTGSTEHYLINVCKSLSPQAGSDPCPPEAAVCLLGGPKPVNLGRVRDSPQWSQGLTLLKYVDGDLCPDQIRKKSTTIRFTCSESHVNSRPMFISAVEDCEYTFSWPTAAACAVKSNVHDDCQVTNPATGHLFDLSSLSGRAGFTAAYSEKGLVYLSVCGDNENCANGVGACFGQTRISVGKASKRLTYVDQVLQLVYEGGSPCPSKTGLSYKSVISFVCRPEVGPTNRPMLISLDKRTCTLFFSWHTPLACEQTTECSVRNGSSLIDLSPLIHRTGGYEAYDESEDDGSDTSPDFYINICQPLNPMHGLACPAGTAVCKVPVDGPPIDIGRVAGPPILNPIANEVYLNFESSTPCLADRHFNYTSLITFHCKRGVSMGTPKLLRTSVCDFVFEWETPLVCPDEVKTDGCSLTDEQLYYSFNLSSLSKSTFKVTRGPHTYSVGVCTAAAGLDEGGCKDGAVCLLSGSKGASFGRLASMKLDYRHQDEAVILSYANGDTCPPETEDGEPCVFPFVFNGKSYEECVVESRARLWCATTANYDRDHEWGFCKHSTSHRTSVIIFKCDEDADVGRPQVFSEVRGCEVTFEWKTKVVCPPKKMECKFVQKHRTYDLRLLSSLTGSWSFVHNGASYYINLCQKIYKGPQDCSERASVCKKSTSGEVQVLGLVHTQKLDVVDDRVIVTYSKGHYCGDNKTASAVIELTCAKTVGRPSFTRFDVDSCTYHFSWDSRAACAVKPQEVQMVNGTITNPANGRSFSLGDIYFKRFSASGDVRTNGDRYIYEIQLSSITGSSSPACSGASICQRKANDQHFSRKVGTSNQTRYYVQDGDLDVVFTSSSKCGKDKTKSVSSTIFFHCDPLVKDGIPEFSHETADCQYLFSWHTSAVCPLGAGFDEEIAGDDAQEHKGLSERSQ

## CO[C@@]12[C@H](COC(N)=O)C3=C(C(=O)C(C)=C(N)C3=O)N1C[C@@H]1N[C@@H]12 [Mitomycin C]
[1]
  tissue surrounding the site of surgical intervention / bleb: very visible dead tissue surrounding the bleb

## Cc1ccc(COC2O[C@H](CCP(=O)(O)O)[C@@H](O)[C@H](O)[C@@H]2O)c(C)c1 (some centres unmarked) [Formula 1; n=1 and R=2,4-dimethylphenyl]
[2]; 5 mg/kg iv
  total number of inflammatory cells in BAL fluid versus LPS control group: not significantly different
[2]; 15 mg/kg iv
  total number of inflammatory cells in BAL fluid versus LPS control group: significant inhibition
[2]; 30 mg/kg iv
  total number of inflammatory cells in BAL fluid versus LPS control group: not significantly different
[2]; iv pre-treatment 15 min prior to LPS, P<0.05
  decrease of neutrophils number in BAL fluid compared to vehicle (saline)-control group: 86.7%
[3]
  bioavailability: 7.7%
[4]
  Ki: 7.9 µM
[5]; 5 mg/kg iv
  peritoneal total cell number in untreated mice compared with treated mice: markedly higher
[5]; 15 mg/kg iv
  peritoneal total cell number in untreated mice compared with treated mice: markedly higher
[5]; iv pre-treatment, 3 h after thioglycolate
  anti-inflammatory actions (leukocyte migration into the peritoneal cavity): Dose-dependent anti-inflammatory actions

## O=C[C@@H](O)[C@@H](O)[C@H](O)[C@H](O)COP(=O)(O)O [mannose-6-phosphate, reference compound]
[4]
  Ki: 19 µM
